{"source": "patent US8715745B2", "about": "(priority 2009, dated 2014)", "key": {"Ustilago maydis": {"system": "Ustilago maydis", "test": "In vitro fungitoxicity (growth inhibition) against Ustilago maydis in copper-minus and copper-plus medium", "type": "cell-based", "details": "for % Inhn. Plus copper Predicted: 1 μg/mL, Colby formula", "procedure": "(§1) In vitro fungitoxicity assays against Ustilago maydis were conducted using the copper-minus medium described in Example 5. Medium containing copper was prepared by adding CuCl2.2H2O to the copper-minus medium at 20 μM. Test compounds were dissolved in dimethylsulfoxide (DMSO) at 200 μg/mL and 1 μL aliquots were added to two wells of flat-bottomed 96-well microtiter plates. Copper-minus medium (100 μL) was added to one of the wells and copper-plus medium to the second well. Control wells, included for each medium, received 1 uL DMSO and 100 μL of medium.\nUstilago maydis was grown in 50 mL potato dextrose broth with shaking at 25° C. for 24 h. A 10 mL aliquot of the culture was centrifuged at 2000 rpm for 2 min, resuspended in 10 mL of sterile Chelex 100-treated water, and centrifuged again. The spores were resuspended in copper-minus medium, and the suspension adjusted to a concentration of 1×10^5 spores per mL. Microtiter plate wells containing test compound of DMSO (control) as described above were inoculated with 100 μL of this spore suspension and the plates incubated at 25° C. for 48 h before assessing fungal growth by measuring light scattering in a NepheloStar plate reader. Growth inhibition was determined by comparing growth in the presence of test compound with growth in control wells lacking test compound.\nResults for growth inhibition by test compounds at 1 μg/mL in copper-plus medium (“% Inhn Plus Copper Observed”) were compared with predicted results (“% Inhn Plus Copper Predicted”) that were calculated using the formula set forth by S. R. Colby in Weeds 1967, 15, 20-22 based on results obtained for the same compounds in copper-minus medium (“% Inhn Minus Copper Observed”) and the inhibition attributed to copper chloride alone, as determined by comparing growth in copper-minus and copper-plus media without any test compound. Results illustrate that hydrazones and copper produce a synergistic fungitoxic effect towards Ustilago maydis."}, "Phytophthora capsici": {"system": "Phytophthora capsici", "test": "In vitro fungitoxicity (growth inhibition) against Phytophthora capsici in copper-minus AS and copper-plus AS medium", "type": "cell-based", "details": "for % Inhn Plus copper Predicted: 0.050 μg/mL, Colby formula", "procedure": "In vitro fungitoxicity assays against Phytophthora capsici were conducted using the asparagine-sucrose (AS) medium described in Canadian Journal of Microbiology 1961, 7, 15-25, except that copper micronutrient, normally included as CuSO4, was omitted. The medium, termed “copper-minus AS”, was prepared by dissolving 2 g asparagine, 0.43 g KH2PO4, 0.3 g K2HPO4, 0.4 mL of a 0.5 mg/mL thiamine-HCl solution and 15 g sucrose in 1 liter of deionized water and treating the solution with 0.5 g Chelex 100 resin (Bio-Rad Analytical grade, 50-100 mesh, sodium form, cat#142-2822) by stirring at room temperature for 1 h. The pH was adjusted to 6.4, then MgSO4.7H2O (100 μg/mL), FeSO4.7H2O (1 μg/mL), CaCl2 (50 μg/mL), ZnSO4.7H2O (1 μg/mL), NaMoO4.2H2O (0.2 μg/mL) and MnCl2.4H2O (0.2 μg/mL) were added and the entire medium was sterilized by filtration. “Copper-plus AS” medium was prepared by adding CuCl2.2H2O to the copper-minus AS medium at 100 μM. Test compounds were dissolved in DMSO then dilutions in copper-minus AS and copper-plus AS media were prepared as 100 μL aliquots in flat-bottomed 96-well microtiter plates.\nPhytophthora capsici was grown on petri plates, 9 cm in diameter, containing 15 mL V-8 agar, pH 7.0, containing 200 mL V-8 juice, 4 g CaCO3, and 20 g agar per liter. Plates were inoculated with 7-mm plugs from a 1-week old culture, incubated at 25° C. in the dark for 3 days, and then placed under fluorescent lights for 4 days to induce sporulation. Zoospore release from sporangia was induced by adding 15 mL of sterile deionized water (which had been treated with Chelex 100 resin using 0.5 g resin per liter of water by stirring at room temperature for 1 h) to each plate, and incubating for 10 min at 25° C. followed by 20 min at 4° C. The plates were returned to 25° C. for 10 min and the aqueous suspension of released zoospores was recovered. The zoospore suspension was adjusted to 5×10^4 spores/mL by dilution into Chelex 100-treated water. Microtiter plates were inoculated with 100 μL of spore suspension and incubated at 25° C. for 48 h before assessing fungal growth by measuring light scattering in a NepheloStar plate reader. Growth inhibition was determined by comparing growth in the presence of test compound with growth in control wells lacking test compound.\nResults for growth inhibition by test compounds in copper-plus AS medium (“% Inhn Plus Copper Observed”) were compared with predicted values (“% Inhn Plus Copper Predicted”) that were calculated using the formula set forth by S. R. Colby in Weeds (1967), 15, 20-22 based on results obtained for the same compounds in copper-minus AS medium (“% Inhn Minus Copper Observed”) and the inhibition attributed to copper chloride alone, as determined by comparing growth in copper-minus AS and copper-plus AS media without any test compound across experiments. Results illustrate that hydrazones and copper produce a synergistic fungitoxic effect towards Phytophthora capsici."}, "[1]": {"system": "Septoria tritici isolate USA-184", "test": "In vitro fungitoxicity (growth inhibition) against Septoria tritici in copper-minus and copper-plus medium", "type": "cell-based", "details": "CuCl2 1 μM without test compound", "procedure": "as §1, with “Septoria tritici” for “Ustilago maydis”, “2” for “20”, “10” for “200”\nSeptoria tritici isolate USA-184 was grown on potato dextrose agar at 18° C. under black lights for 3 days. A loopful of spores was transferred from the culture to a 15 mL tube containing 5 mL of sterile Chelex-treated water. The spores were centrifuged at 2000 rpm for 2 min, resuspended in 10 mL water, and centrifuged again. […] Microtiter plate wells containing test compound of DMSO (control) as described above were inoculated with 100 μL of this spore suspension and the plates incubated at 25° C. for 90 h before assessing fungal growth by measuring light scattering in a NepheloStar plate reader. Growth inhibition was determined by comparing growth in the presence of test compound with growth in control wells lacking test compound. […]"}, "[2]": {"system": "Staphylococcus aureus, Escherichia coli, Aspergillus niger and A. flavus", "details": "literature report, Proceedings of the National Academy of Sciences, India 1991; cited from earlier work"}, "[3]": {"system": "Leptosphaeria nodorum (LEPTNO)", "test": "In vitro fungitoxicity (growth inhibition) against Leptosphaeria nodorum in copper-minus and copper-plus medium", "type": "cell-based", "details": "0.05 μg/mL, 72 h", "procedure": "In vitro fungitoxicity assays against Leptosphaeria nodorum (LEPTNO) were conducted using the liquid growth medium described by Coursen and Sisler (American Journal of Botany 1960, 47, 541-549) except that copper micronutrient, normally included as CuSO4, was omitted. The medium, termed “copper-minus”, was prepared by dissolving 10 g glucose, 1.5 g K2HPO4, 2 g KH2PO4 and 1 g (NH4)2SO4 in 1 liter of deionized water and treating the solution with 0.5 g Chelex 100 resin (Bio-Rad Analytical grade, 50-100 mesh, sodium form, cat#142-2822) by stirring at room temperature for 1 h. MgSO4.7H2O (0.5 g) was added, and stirring was continued for a further hour. Trace elements (minus CuSO4), and vitamins described by Coursen and Sisler were added from concentrated stock solutions and the entire medium was sterilized by filtration. Medium containing copper was prepared by adding CuCl2.2H2O to the copper-minus medium at 20 μM. […]\nLEPTNO was grown on potato dextrose agar in 9 cm diameter petri dishes for 7 days. […] Microtiter plates were inoculated with 100 μL of this spore suspension and the plates incubated at 25° C. for 72 h before assessing fungal growth by measuring light scattering in a NepheloStar plate reader. Growth inhibition was determined by comparing growth in the presence of test compound with growth in control wells lacking test compound. […]"}, "Phytophthora infestans": {"system": "Phytophthora infestans", "type": "in vivo, Phytophthora infestans on tomato plant", "details": "50 ppm hydrazone with 50 μM CuCl2.2H2O, applied 24 h before inoculation, assessed 7 days after inoculation, tomato"}}}
{"compound": "O=C(N/N=C/c1c(Cl)ccc(Cl)c1O)c1cccc(Cl)c1", "note": "[Compound 25]", "values": [{"measurement": "% Inhn. Plus copper Predicted", "setting": "Ustilago maydis", "value": 14.7, "unit": "%"}, {"measurement": "% Inhn Plus copper Predicted", "setting": "Phytophthora capsici", "value": 4.5, "unit": "%"}]}
{"compound": "O=C(N/N=C/c1cccc(Cl)c1O)c1cccc(Cl)c1", "note": "[Compound 58]", "values": [{"measurement": "% Inhn. Plus copper Predicted", "setting": "Ustilago maydis", "value": 42.1, "unit": "%"}, {"measurement": "% Inhn Plus copper Predicted", "setting": "Phytophthora capsici", "value": 13.2, "unit": "%"}]}
{"compound": "Cc1ccc(C(=O)N/N=C/c2ccc(Cl)c(Cl)c2O)c(O)c1", "note": "[Compound 20]", "values": [{"measurement": "% Inhn. Plus copper Predicted", "setting": "Ustilago maydis", "value": 69.6, "unit": "%"}, {"measurement": "% Inhn Plus copper Predicted", "setting": "Phytophthora capsici", "value": 4.5, "unit": "%"}]}
{"compound": "O.O.[Cl][Cu][Cl]", "note": "[CuCl2, CuCl2.2H2O, reference compound]", "values": [{"measurement": "% Inhn., copper chloride alone", "setting": "Ustilago maydis; CuCl2 10 μM without test compound", "value": 11.9, "unit": "%"}, {"measurement": "% Inhn, copper chloride alone", "setting": "Phytophthora capsici; CuCl2 50 uM without test compound, across experiments", "value": "4.5 ± 7.9", "unit": "%"}, {"measurement": "% Inhibition, copper chloride alone", "setting": "[1]", "value": 0, "unit": "%"}, {"measurement": "% Inhibition, copper chloride alone", "setting": "[1]; listed as copper chloride", "value": "no effect on growth"}]}
{"compound": "O=C(NN=Cc1ccccc1O)c1ccccc1O", "note": "[o-hydroxybenzaldehyde-N-salicyloylhydrazone]", "values": [{"measurement": "antimicrobial activity", "setting": "[2]", "value": "Antimicrobial activity has been reported"}]}
{"compound": "O=C(N/N=C/c1c(O)cccc1Cl)c1ccc([N+](=O)[O-])cc1", "note": "[Compound 50]", "values": [{"measurement": "% Inhn. Plus copper Predicted", "setting": "Ustilago maydis", "value": 20.4, "unit": "%"}, {"measurement": "% Inhn Plus copper Predicted", "setting": "Phytophthora capsici", "value": 5.1, "unit": "%"}]}
{"compound": "O=C(N/N=C/c1cc(Cl)c(Cl)cc1O)c1ccccc1", "note": "[Compound 5]", "values": [{"measurement": "LEPTNO % Inhn. Plus Copper Observed", "setting": "[3]; copper-plus medium (CuCl2, 10 μM)", "value": 97.8, "unit": "%"}, {"measurement": "inhibition of growth at 0.05 µg/mL", "setting": "[3]; Parastagonospora nodorum, copper-minus medium, read-out: LEPTNO % Inhn. Minus Copper Observed", "value": 0.1, "unit": "%"}, {"measurement": "TLB % Control", "setting": "Phytophthora infestans", "value": 66.1, "unit": "%"}, {"measurement": "melting point", "value": "206 to 208", "unit": "°C"}]}
